Results: patent publication US20100311606A1, “PHARMACOGENOMIC CELL LINE PANEL AND USE THEREOF” (priority 2007, published 2010)

Tests used:
[1] = test system: human lymphoblastoid cell lines; experiment: Gemcitabine and AraC cytotoxicity assay (MTS/PMS), Human Variation Panel; format: cell-based; conditions: 197 cell lines; mean±SD; 72 hours; read-out: Average unadjusted LC50
Protocol: (§1) Specifically, once cells grew at an exponential phase, 90 μl of cell suspension were placed into a 96 well flat plate (Corning, Corning, N.Y.) at a density of 5×10^4 cells/well. […] Experiments were performed in triplicate for each concentration. Medium alone was used as a blank, and cells treated with DMSO were used as controls for every plate. At end of the incubation, 20 μl combined MTS/PMS solution were added into each well and incubated at 37° C. for an additional 1-2 hours. The amount of soluble formazan was measured with a SAFIRE™ microplate reader (Tecan A G, Switzerland). An absorbance for the control cells ranging from 0.8 to 1.3 was considered to meet the standard of cytotoxicity assays for the analysis. The final cell viability for each well was calculated using the following formula: relative survival cell number=absorbance (drug-treated cells−blank)/absorbance (control cells−[…]). […] GI50 values at each concentration for each cell lines were then calculated based on the dose response curve. […] In addition, to functionally characterize the effect of the candidate genes on the sensitivity to both drugs, drug cytotoxicity with human tumor cell lines also was analyzed using an MTS assay. […]

[2] = test system: MDA-MB-231 breast cancer cells; experiment: Cytotoxicity (MTS) after siRNA knockdown of NT5C3 or FKBP5; format: cell-based, human; conditions: for Change of drug sensitivity after FKBP5 siRNA: FKBP5 specific siRNA vs negative siRNA
Protocol: (§2) Specifically, once cells grew at an exponential phase, 90 μl of cell suspension were placed into a 96 well flat plate (Corning, Corning, N.Y.) at a density of 5×10^4 cells/well. […] Experiments were performed in triplicate for each concentration. Medium alone was used as a blank, and cells treated with DMSO were used as controls for every plate. At end of the incubation, 20 μl combined MTS/PMS solution were added into each well and incubated at 37° C. for an additional 1-2 hours. The amount of soluble formazan was measured with a SAFIRE™ microplate reader (Tecan A G, Switzerland). An absorbance for the control cells ranging from 0.8 to 1.3 was considered to meet the standard of cytotoxicity assays for the analysis. The final cell viability for each well was calculated using the following formula: relative survival cell number=absorbance (drug-treated cells−blank)/absorbance (control cells−[…]). During the entire process from cell culture to cytotoxicity analysis, all cell lines were grown exponentially without antibiotics and were handled by one person under the same condition to minimize the variation introduced by handling. The final dose-response curve for each cell line was plotted based on either 4 parameter logistic with top=100%, or 4 parameter logistic with bottom=0% using an R package. GI50 values at each concentration for each cell lines were then calculated based on the dose response curve. Twelve randomly selected lymphoblastoid cell lines were used to repeat the cytotoxicity studies three months later. In addition, to functionally characterize the effect of the candidate genes on the sensitivity to both drugs, drug cytotoxicity with human tumor cell lines also was analyzed using an MTS assay. The experimental procedures were similar to those for the lymphoblastoid cell lines, except that the cells were incubated overnight in 96 well plates before addition of the two drugs.
(§3) Transient transfection and RNA interference: The human breast cancer cell line, MDA-MB-231, and the human pancreatic cancer cell line, SU86, were used for siRNA studies. The LIPOFECTAMINE™ RNAiMAX reagent (Invitrogen, Carlsbad, Calif.) was used for transient transfection of siRNA according to the manufacturer's instructions. Briefly, cells were growing adhesively until they reached 30-50% confluence in a 6-well plate, and then transfected. siRNAs including NT5C3-siRNA, FKBP5-siRNA and Allstars negative control siRNA (Qiagen) at a final concentration of 50 nM, as well as 5 μL, of LIPOFECTAMINE™ RNAiMAX reagent, were preincubated with 250 μL, reduced serum medium (Invitrogen) for 5 minutes at room temperature before being mixed together. After incubation of the siRNA and LIPOFECTAMINE™ reagent mixtures for 20 minutes at room temperature, this mixture was added to cells in 2 ml culture medium supplied with 10% FBS. Cells were harvested for further assays 48 hours post-transfection.
(§4) Transient transfections were first performed with NT5C3 and FKBP5 specific siRNAs. Western blots verified that both genes were knocked down in both tumor cell lines (FIG. 21A and FIG. 22A). […] That relationship also was confirmed by knockdown experiments performed with FKBP5 specific siRNA.

[3] = test system: SU86 pancreatic cancer cells; experiment: as above; format: cell-based, human; conditions: for Change of drug sensitivity after FKBP5 siRNA: FKBP5 specific siRNA vs negative siRNA
Protocol: as §2, §3, §4

[4] = test system: MDA-MB-231 cells; experiment: Caspase-3/7 activity assay in siRNA-transfected cells; format: cell-based, human; conditions: increasing drug concentrations, 72 hours, compared with negative siRNA
Protocol: (§5) Error bars represent SEM values for 3 independent experiments.
(§6) Caspase-3/7 activity assay: The caspase-3 activity of siRNA-transfected cells was detected according to the manufacture's protocol using CASPASE-GLO® 3/7 Assay kit (Promega BioSciences, San Luis Obispo, Calif.). Once a proluminescent caspase-3/7 substrate containing the tetrapeptide sequence DEVD is cleaved by caspase-3/7, it will release a substrate for luciferase (amino-luciferin). […] CASPASE-GLO® 3/7 Reagent (100 μl; an equal volume to the cell suspension) was added and incubated for 1 hour at room temperature, followed by detection of luminescence with a luminometer. Wells containing culture medium alone were used as controls.
(§7) One possibility would involve the blockade of apoptosis signaling pathways as a result of FKBP5 knock-down. FKBP5 has been reported to be involved in apoptosis through a calcineurin-dependent pathway (Giraudier et al. Blood (2002) 100:2932-2940). To test that hypothesis, caspase-3/7 activity assays were performed to determine whether alterations in FKBP5 expression might influence apoptotic signaling. […] Specific mechanisms by which FKBP5 might influence apoptosis will require future clarification.

[5] = test system: SU86 cells; experiment: as above; format: cell-based, human; conditions: increasing drug concentrations, 72 hours, compared with negative siRNA
Protocol: as §5, §6, §7

[6] = test system: lymphoblastoid cell lines; experiment: Intracellular active metabolites by HPLC after drug treatment; conditions: after AraC treatment
Protocol: To measure the intracellular metabolite levels in drug-treated lymphoblastoid cell lines, an HPLC assay was developed to measure AraCDP, AraCTP as well as dFdCDP and dFdCTP. […] Five×10^6 cells were centrifuged and washed with ice-cold phosphate buffered saline (PBS), followed by resuspension in 135 μL, of ice-cold PBS with 15 μL, of 100 μM AraCTP or dFdCTP as internal standards. Subsequently 50 μL, of 40% ice cold TCA was added, and the mixture was vortexed for 1 minute and chilled on ice for 20 minutes, followed by centrifugation. The supernatant was neutralized by adding 400 μL, of freshly prepared trioctylamine:trichlorotrifluoroethane (1:4). After centrifugation at 4° C. for 1 minute, the aqueous phase (nucleotide extract) was removed and stored at −20° C. for HPLC analysis.
Nucleotide analogue metabolites were separated from native nucleotides on a ZirChrom SAX HPLC column in HPLC assay. […] Mobile phase A was 10 mM K2HPO4 and 40 mM NaCl, pH 6.8. Mobile phase B was 100 mM K2HPO4 and 400 mM K2HPO4, pH 6.8. Detection was performed by monitoring the absorbance with a photo-diode array between 240-290 nm to obtain a typical chromatogram. The amount of intracellular metabolites in 5×10^6 cells was quantified with a standard curve prepared by spiking the 5×10^6 untreated control cells with pure compound, immediately followed by nucleotide extraction.

[7] = test system: lymphoblastoid cell lines; experiment: Preliminary gemcitabine cytotoxicity, MTS assay, initial 71 cell lines; format: cell-based; conditions: Homo sapiens, read-out: IC50 values (the drug concentration that inhibited cell growth 50%), variation across initial 71 lymphoblastoid cell lines, 48 hours
Protocol: Gemcitabine cytotoxicity: Gemcitabine cytotoxicity after drug exposure is a major phenotype that is determined in the course of phenotype-genotype association studies for the lymphoblastoid cell lines. Increasing concentrations of gemcitabine are used to perform the cytotoxicity studies in a 96-well plate format. Approximately 5×10^5 lymphoblastoid cells are incubated overnight in each well before addition of the drug. The cells are then incubated for 48 hours with gemcitabine at 8 different concentrations, ranging from 10^−4 μM to 100 μM. Cytotoxicity is determined using the MTS assay. All studies are performed in triplicate, and both IC50 and LC50 values are calculated. To avoid confounding factors, cytotoxicity studies are performed with equal numbers of cell lines from each ethnic group in every experiment.
IC50 data have been obtained for 71 of 203 cell lines (the 71 cell lines for which Perlegen genome-wide SNP data is available). Significant variation in IC50 values was observed just for the initial 71 cell lines studied (FIG. 14). Each square in FIG. 14 represents an individual sample, and the colors represent different ethnic groups.

[8] = in vitro; format: cell-based; conditions: human
Protocol: as §1

[9] = target: T1, thymidine kinase 2 (TK2) (Homo sapiens, UniProt O00142); conditions: as well as deoxycytidine; cited from earlier work
T1 sequence (O00142 34-265): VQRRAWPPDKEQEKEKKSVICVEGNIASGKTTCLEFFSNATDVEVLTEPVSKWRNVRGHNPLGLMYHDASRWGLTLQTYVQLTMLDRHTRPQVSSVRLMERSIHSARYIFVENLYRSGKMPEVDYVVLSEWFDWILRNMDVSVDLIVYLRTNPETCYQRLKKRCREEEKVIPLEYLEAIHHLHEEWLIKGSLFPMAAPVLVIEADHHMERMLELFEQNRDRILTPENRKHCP

[10] = test system: patients with pancreatic cancer; conditions: patients treated with gemcitabine; cited from earlier work
[11] = average of 7 resistant cell samples
[12] = average of 7 sensitive cell samples
[13] = NT5C3 specific siRNA vs negative siRNA

SMILES	CC50 [1] [µM]	Change of drug sensitivity after FKBP5 siRNA [2]	Change of drug sensitivity after FKBP5 siRNA [3]	caspase-3/7 activity in FKBP5 siRNA-treated cells [4]	caspase-3/7 activity in FKBP5 siRNA-treated cells [5]	AraCDP, Resistant, Average ± SEM [6, 11]	AraCTP, Resistant, Average ± SEM [6, 11]	AraCDP, Sensitive, Average ± SEM [6, 12]	AraCTP, Sensitive, Average ± SEM [6, 12]	IC50 [7] [nM]	CC50 at 72 h [8] [nM]	Change of drug sensitivity (dose response curve) after NT5C3 siRNA [2, 13]	Change of drug sensitivity (dose response curve) after NT5C3 siRNA [3, 13]	phosphorylation by TK2 relative to deoxycytidine [9]	patients with life expectancies of over one year [10]
Nc1ccn([C@@H]2O[C@H](CO)[C@@H](O)[C@@H]2O)c(=O)n1 [AraC, cytosine arabinoside]	8.4 ± 14.3	desensitized	desensitized	significantly decreased	significantly decreased	0.65 ± 0.13	2.62 ± 0.40	1.02 ± 0.18	4.43 ± 0.56	–	–	–	–	–	–
Nc1ccn([C@@H]2O[C@H](CO)[C@@H](O)C2(F)F)c(=O)n1 [gemcitabine, 2′,2′-difluorodeoxycytidine]	–	desensitized	desensitized	significantly decreased	significantly decreased	–	–	–	–	4 to 80	25.3 ± 30.7	increased sensitivity	increased sensitivity	5-10%	approximately 20%
